Assay: recombinant barcode read abundance after kanamycin selection (control-corrected) (log10(CPM+1)); higher = more efficient recombination; sequences stand for … in AGTGCAGAGAAAATCGGCCAGTTTTCTCTGCCTGCAGTCCGCATGCCGT…AGATTTATGCAGCGGACTGCCTTTCTCCCAAAGTGATAAACCGGACAGTATCATGGACCGGTTTTCCCGGTAATCCGTATTTGCAAGGTTGGTTTCACT; site = the 11-nt target
Procedure, shortened: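 Reported as log10(CPM+1), each value stands for recombination efficiency. That efficiency is the averaged, control-corrected counts per million of barcodes found at recombinant junctions. Cells from a pooled E. coli library pairing targets with IS621 bridge RNA target-binding loops were plated twice on chloramphenicol/ampicillin LB agar (control) and twice on chloramphenicol/ampicillin/kanamycin with 0.1 mM IPTG.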
For “TAGACCTCTTGGGTTCTAACCTGTTGCCT (site AAGACCTCTAG)”, the “recombinant barcode read abundance (log10)” value was 0.113.
In the case of “GAGCCGGCTTGGGTTCTAACCTGTTGCTT (site GAGTCGGCTAA)”, the “recombinant barcode read abundance (log10)” value is reported as 0.337.
For “AACCGCCCTTGGGTTCTAACCTGTTGCCT (site AACCGCCCTAC)”, the “recombinant barcode read abundance (log10)” value was 0.899.
With “GTAATTGCTTGGGTTCTAACCTGTTGCCT (site GTAAGTGCTAG)” the “recombinant barcode read abundance (log10)” value was 0.0962.
For “GTCCCTACTTGGGTTCTAACCTGTTGCCG (site GTCCCTACTCG)”, the “recombinant barcode read abundance (log10)” value was 1.11.
With “GCCTGGGCTTGGGTTCTAACCTGTTGCCT (site GCCTGGGCTAG)” the “recombinant barcode read abundance (log10)” value was 0.317.
For “GAAGGAGCTTGGGTTCTAACCTGTTGCAG (site ATGCCTCCTAA)”, the “recombinant barcode read abundance (log10)” value was 0.0306.
For “GACAGGACTTGGGTTCTAACCTGTTGCCT (site AACACGACTAG)”, the “recombinant barcode read abundance (log10)” value was 0.196.
In the case of “AGCGGGCCTTGGGTTCTAACCTGTTGCCT (site AGCGGACCTAG)”, the “recombinant barcode read abundance (log10)” value is reported as 0.382.
With “TCTAAGCCTTGGGTTCTAACCTGTTGCAT (site TCTAAACCTAT)” the “recombinant barcode read abundance (log10)” value was 0.152.
For “CGAGGGTCTTGGGTTCTAACCTGTTGCCT (site CGAGGGACTAG)”, the “recombinant barcode read abundance (log10)” value was 0.0535.
For “TTCGGGCCTTGGGTTCTAACCTGTTGCCT (site CTCGGGCCTAG)”, the “recombinant barcode read abundance (log10)” value was 0.0465.
In the case of “ACCCAACCTTGGGTTCTAACCTGTTGCCT (site ACCCAATCTAG)”, the “recombinant barcode read abundance (log10)” value is reported as 0.0366.
For “CAGAGTCCTTGGGTTCTAACCTGTTGCTT (site CAGAGTCCTAA)”, the “recombinant barcode read abundance (log10)” value was 1.59.
In the case of “ACCGGGACTTGGGTTCTAACCTGTTGCCT (site ACCGAGACTAG)”, the “recombinant barcode read abundance (log10)” value is reported as 0.285.
With “CTCTAAACTTGGGTTCTAACCTGTTGCCA (site CTCTACACTTG)” the “recombinant barcode read abundance (log10)” value was 0.671.
With “ACGCCCTCTTGGGTTCTAACCTGTTGCCT (site GCGCCCTCTAG)” the “recombinant barcode read abundance (log10)” value was 0.302.
With “ATTAAGACTTGGGTTCTAACCTGTTGCCT (site ATAAAGACTAG)” the “recombinant barcode read abundance (log10)” value was 0.423.
In the case of “CCGCAGACTTGGGTTCTAACCTGTTGCTT (site CCGCGGACTAA)”, the “recombinant barcode read abundance (log10)” value is reported as 0.013.
In the case of “ACTAGGACTTGGGTTCTAACCTGTTGCGT (site ACTAGGACTAC)”, the “recombinant barcode read abundance (log10)” value is reported as 2.91.
For “GGGGTCCCTTGGGTTCTAACCTGTTGCCA (site GGGGTCCCTTG)”, the “recombinant barcode read abundance (log10)” value was 1.8.
In the case of “GATGCCTCTTGGGTTCTAACCTGTTGCCT (site GATGCCTCTAG)”, the “recombinant barcode read abundance (log10)” value is reported as 2.06.
In the case of “AAGACTCCTTGGGTTCTAACCTGTTGCTT (site AACACTCCTAA)”, the “recombinant barcode read abundance (log10)” value is reported as 0.287.
For “GAGCGTCCTTGGGTTCTAACCTGTTGCCG (site CAGTGTCCTCG)”, the “recombinant barcode read abundance (log10)” value was 0.0924.
In the case of “GTGGTACCTTGGGTTCTAACCTGTTGCCT (site GTGGTAACTAG)”, the “recombinant barcode read abundance (log10)” value is reported as 0.885.
For “AATTAAGCTTGGGTTCTAACCTGTTGCCT (site AATTTAGCTAG)”, the “recombinant barcode read abundance (log10)” value was 0.223.
For “TAGTACTCTTGGGTTCTAACCTGTTGCTT (site TAGTACTCTGA)”, the “recombinant barcode read abundance (log10)” value was 0.199.
For “TGGTAACCTTGGGTTCTAACCTGTTGCCT (site TGGTAACCTAG)”, the “recombinant barcode read abundance (log10)” value was 0.571.
For “AGGTCGTCTTGGGTTCTAACCTGTTGCCT (site AAGTCGTCTAG)”, the “recombinant barcode read abundance (log10)” value was 0.
In the case of “CCGTATGCTTGGGTTCTAACCTGTTGCCT (site CCGGATGCTAG)”, the “recombinant barcode read abundance (log10)” value is reported as 0.0205.
For “GTTCAGACTTGGGTTCTAACCTGTTGCTT (site CCAAGTCCTTG)”, the “recombinant barcode read abundance (log10)” value was 0.284.
With “CTATTCGCTTGGGTTCTAACCTGTTGCCT (site CTATTCGCTAG)” the “recombinant barcode read abundance (log10)” value was 1.49.
For “CCTACCGCTTGGGTTCTAACCTGTTGCTT (site CGTACCGCTAG)”, the “recombinant barcode read abundance (log10)” value was 0.0456.
With “CGTCGACCTTGGGTTCTAACCTGTTGCCT (site GGTCGACCTAG)” the “recombinant barcode read abundance (log10)” value was 0.227.
In the case of “CGGAAGACTTGGGTTCTAACCTGTTGCCT (site CGGAAGTCTAG)”, the “recombinant barcode read abundance (log10)” value is reported as 0.516.
For “ACCAATGCTTGGGTTCTAACCTGTTGCCT (site ACCAATGCTAG)”, the “recombinant barcode read abundance (log10)” value was 0.0431.
In the case of “TAAGTCACTTGGGTTCTAACCTGTTGCCT (site TAAGTCACTAG)”, the “recombinant barcode read abundance (log10)” value is reported as 1.9.
With “GCGTGCCCTTGGGTTCTAACCTGTTGCCT (site GCGTGCCCTAG)” the “recombinant barcode read abundance (log10)” value was 0.82.
In the case of “GCCAACCCTTGGGTTCTAACCTGTTGCTA (site TCCAACCCTTG)”, the “recombinant barcode read abundance (log10)” value is reported as 0.129.
For “ATGAAGCCTTGGGTTCTAACCTGTTGCCT (site GTGAAGCCTAG)”, the “recombinant barcode read abundance (log10)” value was 0.177.
For “ACATGTCCTTGGGTTCTAACCTGTTGCGT (site ACATGTCCTAT)”, the “recombinant barcode read abundance (log10)” value was 1.48.
With “CTCTAGACTTGGGTTCTAACCTGTTGCCT (site CTATAGACTTG)” the “recombinant barcode read abundance (log10)” value was 0.00655.
In the case of “AGTTGGCCTTGGGTTCTAACCTGTTGCGA (site CCACCTTCTAG)”, the “recombinant barcode read abundance (log10)” value is reported as 0.123.
For “AGCTCATCTTGGGTTCTAACCTGTTGCCT (site AGCTCATCTAG)”, the “recombinant barcode read abundance (log10)” value was 0.0912.
In the case of “ACGCGAGCTTGGGTTCTAACCTGTTGCGG (site ACGCGAGCTCT)”, the “recombinant barcode read abundance (log10)” value is reported as 0.423.
With “TGTCCCTCTTGGGTTCTAACCTGTTGCCT (site TGTCCCTCTAG)” the “recombinant barcode read abundance (log10)” value was 0.769.
For “CTCTGTCCTTGGGTTCTAACCTGTTGCCA (site CTCTGTCCTTA)”, the “recombinant barcode read abundance (log10)” value was 0.0433.
For “GGCTGAGCTTGGGTTCTAACCTGTTGCCT (site GGCTGAGCTAG)”, the “recombinant barcode read abundance (log10)” value was 0.856.
For “GCTAACCCTTGGGTTCTAACCTGTTGCCT (site GCTAACCCTAG)”, the “recombinant barcode read abundance (log10)” value was 1.18.
In the case of “TGAGCGGCTTGGGTTCTAACCTGTTGCCT (site TGAGCGGCTAG)”, the “recombinant barcode read abundance (log10)” value is reported as 0.438.
In the case of “GAACTGTCTTGGGTTCTAACCTGTTGCCA (site GAACTGTCTTG)”, the “recombinant barcode read abundance (log10)” value is reported as 0.995.
In the case of “GTGGTACCTTGGGTTCTAACCTGTTGCCT (site GTGGTACCTAG)”, the “recombinant barcode read abundance (log10)” value is reported as 2.77.
For “GGAGGTCCTTGGGTTCTAACCTGTTGCTA (site TAAGGTCCTTA)”, the “recombinant barcode read abundance (log10)” value was 0.0399.
For “TAGCAGACTTGGGTTCTAACCTGTTGCCT (site TAGCCGACTAG)”, the “recombinant barcode read abundance (log10)” value was 0.034.
In the case of “GTTCATCCTTGGGTTCTAACCTGTTGCCT (site GTTCATCCTAG)”, the “recombinant barcode read abundance (log10)” value is reported as 1.02.
In the case of “CTATTGACTTGGGTTCTAACCTGTTGCCT (site CTATAGACTAG)”, the “recombinant barcode read abundance (log10)” value is reported as 0.0514.
In the case of “TCTTGGTCTTGGGTTCTAACCTGTTGCTA (site TTATGGTCTTA)”, the “recombinant barcode read abundance (log10)” value is reported as 0.208.
In the case of “TGTAGTCCTTGGGTTCTAACCTGTTGCGT (site TGTAGTCCTAT)”, the “recombinant barcode read abundance (log10)” value is reported as 0.0925.
With “TGATAGCCTTGGGTTCTAACCTGTTGCCT (site TGATAGCCTAG)” the “recombinant barcode read abundance (log10)” value was 0.901.
With “AAGTGTCCTTGGGTTCTAACCTGTTGCAT (site AAGTGTCCTAT)” the “recombinant barcode read abundance (log10)” value was 1.73.
For “CCGTGGACTTGGGTTCTAACCTGTTGCCT (site CCGTGGACTAG)”, the “recombinant barcode read abundance (log10)” value was 1.75.
With “AATTCAGCTTGGGTTCTAACCTGTTGCCT (site AATTGAGCTAG)” the “recombinant barcode read abundance (log10)” value was 0.164.
For “CGATCCACTTGGGTTCTAACCTGTTGCCT (site AGATCCACTAG)”, the “recombinant barcode read abundance (log10)” value was 0.0256.
In the case of “CATATGACTTGGGTTCTAACCTGTTGCCT (site CATATGACTAG)”, the “recombinant barcode read abundance (log10)” value is reported as 1.2.
For “CAGGCGTCTTGGGTTCTAACCTGTTGCAC (site GAGGGGTCTGT)”, the “recombinant barcode read abundance (log10)” value was 0.142.
With “GCCTGGGCTTGGGTTCTAACCTGTTGCCG (site GCCAGGGCTCG)” the “recombinant barcode read abundance (log10)” value was 0.0298.
For “GTCCGGTCTTGGGTTCTAACCTGTTGCTT (site GTCCGGTCTAA)”, the “recombinant barcode read abundance (log10)” value was 1.07.
For “ATTTGTACTTGGGTTCTAACCTGTTGCCT (site ATTTGTACTAG)”, the “recombinant barcode read abundance (log10)” value was 0.293.
With “CAATCACCTTGGGTTCTAACCTGTTGCTT (site CAAACACCTAA)” the “recombinant barcode read abundance (log10)” value was 0.109.
In the case of “TATAGAACTTGGGTTCTAACCTGTTGCCT (site TATAGAACTAG)”, the “recombinant barcode read abundance (log10)” value is reported as 0.192.
With “TTAGGTCCTTGGGTTCTAACCTGTTGCAG (site TTAGGTCCTCT)” the “recombinant barcode read abundance (log10)” value was 2.5.
With “TAGAAGACTTGGGTTCTAACCTGTTGCTA (site TAGAAGACTGA)” the “recombinant barcode read abundance (log10)” value was 0.155.
With “ACACTCCCTTGGGTTCTAACCTGTTGCTG (site ACACTCCCTCA)” the “recombinant barcode read abundance (log10)” value was 2.14.
For “CAGGGGCCTTGGGTTCTAACCTGTTGCCT (site CAGTGGCCTAG)”, the “recombinant barcode read abundance (log10)” value was 0.185.
For “GATTCACCTTGGGTTCTAACCTGTTGCCT (site AATTCACCTAG)”, the “recombinant barcode read abundance (log10)” value was 0.543.
For “AGCATCACTTGGGTTCTAACCTGTTGCCT (site AGCATCACTAG)”, the “recombinant barcode read abundance (log10)” value was 0.499.
For “CAGAGCACTTGGGTTCTAACCTGTTGCCT (site TAGAGCACTAG)”, the “recombinant barcode read abundance (log10)” value was 0.138.
In the case of “TTGTGAGCTTGGGTTCTAACCTGTTGCGG (site TTGTAAGCTCG)”, the “recombinant barcode read abundance (log10)” value is reported as 0.037.
For “AGATGGACTTGGGTTCTAACCTGTTGCAG (site AGATGGCCTAT)”, the “recombinant barcode read abundance (log10)” value was 0.0344.
With “GGAGAGTCTTGGGTTCTAACCTGTTGCCT (site GGAGAGTCTAG)” the “recombinant barcode read abundance (log10)” value was 2.45.
For “CCTGACTCTTGGGTTCTAACCTGTTGCAT (site TAGTGGCCTTA)”, the “recombinant barcode read abundance (log10)” value was 0.221.
In the case of “CTCGGAACTTGGGTTCTAACCTGTTGCCT (site CTCGGACCTAG)”, the “recombinant barcode read abundance (log10)” value is reported as 0.257.
With “ACCGGTACTTGGGTTCTAACCTGTTGCCT (site ACCCGTACTAG)” the “recombinant barcode read abundance (log10)” value was 0.014.
For “TACTTAACTTGGGTTCTAACCTGTTGCCT (site TACTTAACTAG)”, the “recombinant barcode read abundance (log10)” value was 0.134.
With “GTAAGTTCTTGGGTTCTAACCTGTTGCCT (site GCAAGTTCTAG)” the “recombinant barcode read abundance (log10)” value was 0.258.
In the case of “GGACACTCTTGGGTTCTAACCTGTTGCTA (site GGACACTCTAG)”, the “recombinant barcode read abundance (log10)” value is reported as 2.32.

Source: the supplement of paper PMC11208160
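Further: IS621 recombinase and bridge RNA in Escherichia coli cells.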
